A short description of the data set: GHS categories as the set defines them, by LD50: 1 up to 5, 2 up to 50, 3 up to 300, 4 up to 2000, 5 above 2000 mg/kg. The settings on record: rat; in vivo; po.
As for `C[C@@H]1[C@H](O)[C@@H](C)C=CC=CC=CC=CC=CC=CC=C[C@H](O[C@@H]2O[C@H](C)[C@@H](O)[C@H](N)[C@@H]2O)C[C@@H]2O[C@](O)(C[C@@H](O)C[C@@H](O)[C@H](O)CC[C@@H](O)C[C@@H](O)CC(=O)O[C@H]1C)C[C@H](O)[C@H]2C(=O)O`, the GHS category was determined as 5.

As for `CCCCCCCCCCCCCCCC(=O)OC[C@H](O)[C@H]1OC(=O)C(O)=C1O`, the GHS category was determined as 5.

`O=C(c1ccc(F)cc1)c1cc(I)ccc1Cl` returned a GHS category of 5.

`CCCCCCCCCCCCCCCC(=O)OC1=C(C(=O)Nc2ccccn2)N(C)S(=O)(=O)c2ccsc21` registered a GHS category of 2.

As to `C[C@@H]1C[C@@H](C)CC(C)(C)C1`, the GHS category is reported as 5.

Regarding `CCCCCC(O)CCO` (configuration not stated), the GHS category is 5.

On to `COC(=O)c1ccccc1S(=O)(=O)NC(=O)Nc1nc(C)nc(OC)n1`, for which the GHS category stood at 5.

As to `CC(C)(C)OOC(C)(C)c1ccc(C(C)(C)OOC(C)(C)C)cc1`, the GHS category is recorded as 5.

As to `CCn1cc(C(=O)O)c(=O)c2cc(F)c(N3CCNCC3)nc21`, the GHS category is on record as 5.

The compound `Cc1c(N)nc(C(CC(N)=O)NCC(N)C(N)=O)nc1C(=O)NC(C(=O)NC(C)C(O)C(C)C(=O)NC(C(=O)NCCc1nc(-c2nc(C(=O)NCCCN[C@@H](C)c3ccccc3)cs2)cs1)C(C)O)C(O[C@@H]1O[C@@H](CO)[C@@H](O)[C@H](O)[C@@H]1O[C@H]1O[C@H](CO)[C@@H](O)[C@H](OC(N)=O)[C@@H]1O)c1c[nH]cn1` (some centres not stated) gave a GHS category of 5.

In turn, `CC1Oc2cc(C(=O)c3ccc(Cl)cc3)ccc2N(C)C1=O` (configuration not stated) showed a GHS category of 5.

`CCC1COC(Cn2ccnc2)(c2cc3cc(Cl)cc(Cl)c3o2)O1` (configuration not stated): the GHS category was 4.

As to `CCCCC(CC)CNc1ccc2ccccc2c1N=Nc1ccc(N=Nc2ccccc2C)cc1C` (configuration not stated), the GHS category was found to be 5.

Consider `CCOC(=O)Cn1c(=O)sc2cccc(Cl)c21`, for which the GHS category stood at 5.

`NCCCC[C@H](N[C@@H](CCc1ccccc1)C(=O)O)C(=O)N1CCC[C@H]1C(=O)O`: the GHS category came out at 5.

As to `C=CC1=C(C(=O)O)N2C(=O)[C@@H](NC(=O)/C(=N\O)c3csc(N)n3)[C@H]2SC1`, the GHS category came out at 5.

As for `O=C(O)c1c(Cl)c(Cl)c(C(=O)O)c(Cl)c1Cl`, the GHS category came out at 5.

The compound `C=C(C)CCCC(C)CCOC(=O)CC` (configuration not stated) came in with a GHS category of 5.

Compound `O=C(O)c1[nH]n(-c2ccc(S(=O)(=O)O)cc2)c(=O)c1/N=N/c1ccc(S(=O)(=O)O)cc1` gave a GHS category of 5.

As for `O=C1CC(c2ccccc2)c2cc(Br)ccc2O1` (configuration not stated), the GHS category was found to be 5.

The compound `CCC(C(=O)Oc1ccccc1OC)c1ccc(-c2ccccc2)cc1` (configuration not stated) showed a GHS category of 5.

`O=C1c2ccccc2C(=O)N1CCO`: the GHS category was found to be 5.

With `O=C(c1ccc(Cl)c(Cl)c1)c1ccccc1-c1ncc[nH]1`, the GHS category is 4.

Take `COC(=O)C1=C(C)NC(COC(N)=O)=C(C(=O)OC(C)C)C1c1cccc(Cl)c1Cl` (configuration not stated): the GHS category is recorded as 5.

`CCCCCCCC1CCCC(=O)O1` (configuration not stated) returned a GHS category of 5.

Take `COc1cc(C)c(/C=C/C(C)=C/C=C/C(C)=C/C(=O)O)c(C)c1C`: the GHS category stood at 5.

Compound `CC/C=C\CCOC(=O)C/C=C\CC` returned a GHS category of 5.

For `O=C(O)CCCCCCCCCCNS(=O)(=O)c1ccc(Cl)cc1C(=O)c1ccccc1`, the GHS category is reported as 4.

`OB(O)c1cc(F)c(F)c(F)c1` gave a GHS category of 4.

In turn, `COC(OC)N(C)C` returned a GHS category of 5.

In turn, `CNC(=O)Oc1ccc(N(C)C)c(C)c1` returned a GHS category of 2.

For `CSCC[C@H](NC(=O)[C@H](Cc1c[nH]c2ccccc12)NC(=O)CCNC(=O)OC(C)(C)C)C(=O)N[C@@H](CC(=O)O)C(=O)N[C@@H](Cc1ccccc1)C(N)=O`, the GHS category is 3.

`CCOC(=O)N(C)C1CCCN(c2nc(N)c3cc(OC)c(OC)cc3n2)C1` (configuration not stated): the GHS category came out at 4.

`COc1ccc2c(c1)CCN(c1ccccc1)C2c1ccc(OCCN2CCCC2)cc1` (configuration not stated) showed a GHS category of 4.

In the case of `Brc1cc(Oc2cc(Br)c(Br)c(Br)c2Br)c(Br)c(Br)c1Br`, the GHS category is given as 5.

As to `COc1cc2nc(N3CCC(N(C)C(=O)c4ccco4)CC3)nc(N)c2cc1OC`, the GHS category is listed as 4.

Compound `C=C1NC(=O)C(C)NC(=O)C(C(C)C)NC2C=Cc3c(C(C)O)cc(nc3C2O)C(=O)OC(C)C2NC(=S)c3csc(n3)C(C(C)(O)C(C)O)NC(=O)C3CSC(=N3)C(=CC)NC(=O)C(C(C)O)NC(=O)c3csc(n3)C3(CCC(c4nc(C(N)=O)cs4)NC3c3csc2n3)NC(=O)C(C)NC1=O` (configuration not stated) displayed a GHS category of 5.

Compound `CC(C)CCCCCCCOC(=O)CCCCCCCC(=O)OCCCCCCCC(C)C` registered a GHS category of 5.

For the compound `O=C(Nc1ccc(Cl)cc1)c1cc2ccccc2cc1O`, the GHS category worked out at 5.

`Cc1cccc(NC(=O)c2cc(C)[nH]n2)c1` showed a GHS category of 5.

In the case of `NC(=O)c1cc[n+](CC2=C(C(=O)O)N3C(=O)[C@@H](NC(=O)[C@H](c4ccccc4)S(=O)(=O)[O-])[C@@H]3SC2)cc1`, the GHS category is 5.

Take `CCN(CC)c1nc2ccccn2c(=O)c1C=NN1CCOC1=O`: the GHS category came to 3.

Consider `O=C1CCCCCCCCCOCCCCCO1`, for which the GHS category was 5.

As for `COc1cc(S(=O)(=O)O)c(C)cc1NC(=O)CC(C)=O`, the GHS category was 5.

Compound `O=C1NC(=O)c2ccc3c4cccc5cccc(c6ccc1c2c63)c54` came in with a GHS category of 5.

For `CCCCCOC(=O)CC`, the GHS category stood at 5.

Regarding `Nc1nc2c(ncn2COCCO)c(=O)[nH]1`, the GHS category is on record as 5.

For `C=CC(=O)OCCCCCC(C)C`, the GHS category stood at 5.

For the compound `C=CC(=O)OCC1(CC)COCOC1`, the GHS category is 5.

Compound `CCCCCCCCCCSCCN1CCCC1=O` came in with a GHS category of 5.

`O=C(O)c1ccccc1C(=O)O` displayed a GHS category of 5.

Consider `COC(C)CCO` (configuration not stated), for which the GHS category is recorded as 5.

`C=C(C#N)C(=O)OCCOC` registered a GHS category of 5.

In turn, `CCN(CC)CCC#N` displayed a GHS category of 4.

In turn, `CC[C@H]1CO[C@@](Cn2ccnc2)(c2cc3cc(Cl)cc(Cl)c3o2)O1` registered a GHS category of 4.

The compound `COC(=O)CSP(=S)(OC)OC` gave a GHS category of 5.

In turn, `CO[Si](CCCCl)(OC)OC` returned a GHS category of 5.

`CCCCc1c(Cc2ccc(-c3ccccc3-c3nn[nH]n3)cc2)c(=O)nc2nc(C)[nH]n12` yielded a GHS category of 4.

The compound `O=C1C(O)N=C(c2ccccc2)c2cc(Cl)ccc2N1CC1CC1` (configuration not stated) yielded a GHS category of 5.

Compound `CCOc1nc(F)cc2nc(S(=O)(=O)Nc3c(Cl)cccc3C(=O)OC)nn12` returned a GHS category of 5.

In turn, `C#C[C@]1(O)CC[C@H]2[C@@H]3CCC4=CC(=O)CC[C@]4(C)[C@H]3CC[C@@]21C` had a GHS category of 5.

In turn, `CCCC1CCOC(C)S1` (configuration not stated) gave a GHS category of 5.

With `Cc1cccc2ncc(C(=O)NCC(C)(C)C)c(=O)n12`, the GHS category was 3.

With `O=C1NC(=O)C2CC=CCC12` (configuration not stated), the GHS category amounted to 5.

As to `Oc1ccc(-c2ccccc2)cc1`, the GHS category turned out to be 5.

For the compound `C=C(C)C(=O)OCCOC(=O)c1ccc2c(c1)C(=O)OC2=O`, the GHS category amounted to 5.

For `CCCCCCCOCCCCN1CCCCCC1=O`, the GHS category was 5.

For the compound `CCN1C(=O)CCc2c(OCC(O)CN3CCC(Cc4ccccc4)CC3)cccc21` (configuration not stated), the GHS category amounted to 4.

In turn, `C=C(c1ccccc1)c1ccccc1` yielded a GHS category of 5.

On to `CCCN(CCC)c1c([N+](=O)[O-])cc(S(C)(=O)=O)cc1[N+](=O)[O-]`, for which the GHS category came to 5.

As to `CC(=O)S[C@@H]1CC2=CC(=O)CC[C@]2(C)[C@H]2CC[C@@]3(C)[C@@H](CC[C@@]34CCC(=O)O4)[C@H]12`, the GHS category is reported as 4.

As to `C=CC(C)(CCC=C(C)CC)OC(C)=O` (configuration not stated), the GHS category worked out at 5.

Take `CC(c1ccc(O)cc1)(c1ccc(O)cc1)c1ccc(O)cc1`: the GHS category stood at 5.

Consider `O=C1CC(Nc2ccc(Cl)cc2Cl)=NN1c1c(Cl)cc(Cl)cc1Cl`, for which the GHS category came to 5.

Turning to `CCC1Nc2cc(Cl)c(S(N)(=O)=O)cc2S(=O)(=O)N1` (configuration not stated), the GHS category was found to be 5.

The compound `C=CC(=O)Oc1c(Br)cc(Cl)c2cccnc12` displayed a GHS category of 5.

`CCOC(=O)C(=O)Nc1nc(-c2ccccc2)cs1` yielded a GHS category of 5.

Turning to `CC(C)CCOCCC(C)C`, the GHS category stood at 5.

Compound `Cc1c(C)c2c(c(C)c1OC(=O)CCC(=O)O)CC[C@@](C)(CCC[C@H](C)CCC[C@H](C)CCCC(C)C)O2` displayed a GHS category of 5.

Regarding `C[Si](Cl)(Cl)C1CCCCC1`, the GHS category stood at 5.

Turning to `CN1C(=O)C(O)N=C(c2ccccc2Cl)c2cc(Cl)ccc21` (configuration not stated), the GHS category worked out at 5.

Take `CC(CCC(=O)O)C1CCC2C3C(OS(=O)(=O)O)CC4CC(OS(=O)(=O)O)CCC4(C)C3CCC12C` (configuration not stated): the GHS category worked out at 5.

Take `CCCCCCCc1ccc(O)cc1`: the GHS category was 5.

Regarding `COP(=S)(OC)Oc1ccc(/N=N/c2ccc(Cl)cc2)cc1`, the GHS category is listed as 4.

Turning to `CC(C)(C)OOC(C)(C)CCC(C)(C)OOC(C)(C)C`, the GHS category came out at 5.

Compound `CC(CO)(CO)C(=O)O` registered a GHS category of 5.

As for `Nc1nnc(-c2cc(Cl)ccc2Cl)c(N)n1`, the GHS category was found to be 4.

Regarding `CCCN(CC)CC1COC2(CCC(C(C)(C)C)CC2)O1` (configuration not stated), the GHS category is 4.

`CCCCCCCCCCCCCCOC(=O)Cl`: the GHS category was found to be 5.

Compound `O=C1CCCCCN1C(=O)Nc1ccc(Cc2ccc(NC(=O)N3CCCCCC3=O)cc2)cc1` came in with a GHS category of 5.

`CC(=O)CCC=C(C)CC/C=C(\C)CC/C=C(\C)CCC=C(C)C` registered a GHS category of 5.

`CNC(=O)C(=NNc1ccccc1Cl)C(C)=O` displayed a GHS category of 5.

The compound `C=C(C)C(=O)OCCOC(=O)NCCC(C)CC(C)(C)CNC(=O)OCCOC(=O)C(=C)C` (configuration not stated) registered a GHS category of 5.

As to `Cc1ccc2c(c1)C(=O)C(C)C2` (configuration not stated), the GHS category is recorded as 5.

`CC(C)COC(=O)OCN1C(=O)CN(CCN2CC(=O)N(COC(=O)OCC(C)C)C(=O)C2)CC1=O` returned a GHS category of 5.

`CC(=O)C(=O)CC(C)C` returned a GHS category of 5.

As for `Cn1nnnc1SCCCC(=O)NCc1ccco1`, the GHS category stood at 4.
